The results in this text go back to US11819552B2, “Antibody-drug conjugates targeting uPARAP” (RIGSHOSPITALET, priority 2016, dated 2023).

One test concerns U937 cells. Briefly: Cell cycle distribution analysis. Type of test: cell-based. The conditions noted are these: 3-day incubation, 50 nM free toxin. The procedure: (§1) Cell cycle analysis was performed using a Nucleocounter NC-3000 system (ChemoMetec Denmark), using the manufacturers standard protocol for analyzing the cell cycle distribution of a population of cells, based on the DNA content of each cell. The percentage of cells in Sub-G1, G1, S, or G2/M-phases of the cell cycle was established from histogram analysis using the NucleoView NC-3000 software.

For the next test, the system named is THP-1 cells. As to the kind of experiment: Cell cycle distribution analysis. Type of test: cell-based. The conditions noted are these: 3-day incubation, 50 nM free toxin. On the procedure: as §1
The next test has as its system HT1080 cells. As to the kind of experiment: Cell cycle distribution analysis. Type of test: cell-based. The following applies: 3-day incubation, 50 nM free toxin. The procedure: as §1
A further test concerns KNS42 cells. Briefly: Cell cycle distribution analysis. The conditions noted are these: 3-day incubation, 50 nM free toxin. Type of test: cell-based. The procedure: as §1
In another test the target is T1, uPARAP (Homo sapiens, UniProt Q9UBG0).
T1 sequence (Q9UBG0 31-1479): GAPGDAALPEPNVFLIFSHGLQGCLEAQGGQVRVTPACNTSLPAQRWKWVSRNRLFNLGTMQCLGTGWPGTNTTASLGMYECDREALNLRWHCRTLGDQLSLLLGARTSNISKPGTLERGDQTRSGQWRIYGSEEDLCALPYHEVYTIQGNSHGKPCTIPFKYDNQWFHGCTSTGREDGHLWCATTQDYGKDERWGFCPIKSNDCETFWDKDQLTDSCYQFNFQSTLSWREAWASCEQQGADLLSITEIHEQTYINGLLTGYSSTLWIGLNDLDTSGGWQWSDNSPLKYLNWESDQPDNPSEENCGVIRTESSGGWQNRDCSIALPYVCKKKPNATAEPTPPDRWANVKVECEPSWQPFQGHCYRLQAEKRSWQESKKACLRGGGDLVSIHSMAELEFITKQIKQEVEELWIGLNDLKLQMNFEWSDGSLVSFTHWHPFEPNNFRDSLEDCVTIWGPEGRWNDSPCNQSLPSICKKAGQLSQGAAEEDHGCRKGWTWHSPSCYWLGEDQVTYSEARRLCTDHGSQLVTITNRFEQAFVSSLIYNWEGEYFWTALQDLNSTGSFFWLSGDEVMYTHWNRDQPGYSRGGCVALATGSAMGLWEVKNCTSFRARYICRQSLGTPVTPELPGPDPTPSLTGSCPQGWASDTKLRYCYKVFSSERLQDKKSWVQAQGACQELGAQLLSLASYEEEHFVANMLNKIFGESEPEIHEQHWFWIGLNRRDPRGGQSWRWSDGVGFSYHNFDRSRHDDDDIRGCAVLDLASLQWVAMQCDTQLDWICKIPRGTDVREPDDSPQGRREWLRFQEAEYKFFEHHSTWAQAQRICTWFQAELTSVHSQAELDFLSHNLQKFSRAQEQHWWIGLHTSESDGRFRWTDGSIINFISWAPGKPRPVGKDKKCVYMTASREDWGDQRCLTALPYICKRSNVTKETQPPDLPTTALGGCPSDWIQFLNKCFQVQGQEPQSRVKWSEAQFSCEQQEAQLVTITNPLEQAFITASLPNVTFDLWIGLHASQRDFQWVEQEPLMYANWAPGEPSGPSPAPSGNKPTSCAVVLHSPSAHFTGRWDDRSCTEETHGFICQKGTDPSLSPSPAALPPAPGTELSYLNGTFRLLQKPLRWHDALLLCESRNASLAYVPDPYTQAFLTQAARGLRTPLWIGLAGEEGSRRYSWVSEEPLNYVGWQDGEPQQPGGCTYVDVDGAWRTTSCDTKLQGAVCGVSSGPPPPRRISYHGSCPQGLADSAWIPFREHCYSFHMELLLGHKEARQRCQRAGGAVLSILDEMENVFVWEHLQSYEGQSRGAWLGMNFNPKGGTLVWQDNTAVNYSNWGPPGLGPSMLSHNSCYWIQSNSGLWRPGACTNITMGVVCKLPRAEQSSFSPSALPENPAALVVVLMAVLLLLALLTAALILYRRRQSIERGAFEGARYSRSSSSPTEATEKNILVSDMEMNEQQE
Briefly: Western blotting of MG63 cell lysate. Format: binding. Further details: endogenous in cells; host or cells: MG63 human osteosarcoma cells. The following applies: detergent lysate of uPARAP-positive MG63 human osteosarcoma cells. The procedure: For Western blotting, a detergent cell lysate prepared from uPARAP-positive MG63 human osteosarcoma cells was analyzed, using identical concentrations of “2h9 cloned” and “2h9 original” as the primary antibodies. […] No reaction is seen in the absence of primary antibody (negative control).

Where a SMILES comes first, the peptide text is derived from it. [ ]: non-standard residue; d: D form. The star is where a group is joined. Dolaproine = CO[C@@H]([C@@H]1CCCN1)[C@@H](C)C(=O)O; Dil = CC[C@H](C)[C@H](NC)[C@@H](CC(=O)O)OC; X1 = C[C@@H](N*)[C@@H](O)c1ccccc1; NMeV = CN[C@H](C(=O)O)C(C)C

Regarding `CC[C@H](C)[C@@H]([C@@H](CC(=O)N1CCC[C@H]1[C@H](OC)[C@@H](C)C(=O)N[C@H](C)[C@@H](O)c1ccccc1)OC)N(C)C(=O)[C@@H](NC(=O)[C@@H](NC)C(C)C)C(C)C` [MMAE, monomethyl auristatin E, reference compound] (H-[NMeV]V[Dil][Dolaproine]-X1), the Cell cycle distribution result in the test with U937 cells is “shift in cell cycle distribution towards the Sub-G1 and G2/M phases”; in the test on THP-1 cells, “shift in cell cycle distribution towards the Sub-G1 and G2/M phases”; in the test with HT1080 cells it was “shift in cell cycle distribution towards the Sub-G1 and G2/M phases”; with KNS42 cells, “shift in cell cycle distribution towards the Sub-G1 and G2/M phases”.

B1: 2h9 cloned: recombinant mAb 2h9 product produced in CHO cells from SEQ ID NO: 1 and SEQ ID NO: 5 (protein)
light: DIQMTQSPASQSASLGESVTITCLASQTIGTWLAWYQQKPGKSPQLLIYAATTLTDGVPSRFSGAGSGTKFSLKISSLQAEDFASYFCQEFFSTPFTFGSGTKLELKRADAAPTVSIFPPSSEQLTSGGASVVCFLNNFYPKDINVKWKIDGGERQNGVLNSWTDQDSKDSTYSMSSTLTLTKDEYERHNSYTCEATHKTSTSPIVKSFNRNEC
heavy: QVQLQQPGTELVRPGLSVKLSCKASGYTFTSYWMNWVKQRPGQGLEWIGMIHPSNDEKRINQKFKDKATLTVDKFSSTVYMQVSSPTSEDSAVYYCARGGGDYVGDYALDFWGQGTSVTVSSAKTTPPSVYPLAPGSAAQTNSMVTLGCLVKGYFPEPVTVTWNSGSLSSGVHTFPAVLQSDLYTLSSSVTVPSSTWPSETVTCNVAHPASSTKVDKKIVPRDCGCKPCICTVPEVSSVFIFPPKPKDVLTITLTPKVTCVVVDISKDDPEVQFSWFVDDVEVHTAQTQPREEQFNSTFRSVSELPIMHQDWLNGKEFKCRVNSAAFPAPIEKTISKTKGRPKAPQVYTIPPPKEQMAKDKVSLTCMITDFFPEDITVEWQWNGQPAENYKNTQPIMDTDGSYFIYSKLNVQKSNWEAGNTFTCSVLHEGLHNHHTEKSLSHSPGK
As for B1, the “Reactivity in Western blotting” value in the test with uPARAP is reported as “react specifically with the uPARAP protein”; with uPARAP (listed as recombinant antibody product), “specifically recognize uPARAP”.
